Laboratory results as given in patent US8802597B2, “Herbicidal pyrimidines” (E I du Pont de Nemours and Company, priority 2003, dated 2014).
Where two headings read alike, the source gives them in different places.

Experiments:
Assay type in all cases: in vivo
[1] = system: Surinam grass (Brachiaria decumbens); experiment: Test B pre/postemergence; details: Urochloa decumbens; for pest or weed control at 125 g/ha: 125 g ai/ha; for pest or weed control at 500 g/ha: 500 g ai/ha
Procedure, shortened: (§1)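 Scores reflect visual comparison with untreated controls, where 0 means no effect and 100 complete control. Plants stayed 13 to 15 days in the greenhouse after pre- or postemergence treatment with compounds carried in a non-phytotoxic solvent and surfactant.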

[2] = system: barnyardgrass (Echinochloa crus-galli); experiment: Test B pre/postemergence; details: Echinochloa crus-galli; for pest or weed control at 125 g/ha: 125 g ai/ha; for pest or weed control at 500 g/ha: 500 g ai/ha
Procedure, shortened: as §1

[3] = system: cocklebur (Xanthium strumarium); experiment: Test B pre/postemergence; details: Xanthium strumarium; for pest or weed control at 125 g/ha: 125 g ai/ha; for pest or weed control at 500 g/ha: 500 g ai/ha
Procedure, shortened: as §1

corn (Zea mays) = experiment: Test B pre/postemergence; details: Zea mays
Procedure, shortened: as §1

[4] = system: crabgrass (Digitaria sanguinalis); experiment: Test B pre/postemergence; details: Digitaria sanguinalis; for pest or weed control at 125 g/ha: 125 g ai/ha; for pest or weed control at 500 g/ha: 500 g ai/ha
Procedure, shortened: as §1

[5] = system: giant foxtail (Setaria faberii); experiment: Test B pre/postemergence; details: Setaria faberi; for pest or weed control at 125 g/ha: 125 g ai/ha; for pest or weed control at 500 g/ha: 500 g ai/ha
Procedure, shortened: as §1

[6] = system: lambsquarters (Chenopodium album); experiment: Test B pre/postemergence; details: Chenopodium album; for pest or weed control at 125 g/ha: 125 g ai/ha; for pest or weed control at 500 g/ha: 500 g ai/ha
Procedure, shortened: as §1

[7] = system: morningglory (Ipomoea coccinea); experiment: Test B pre/postemergence; details: Ipomoea; for pest or weed control at 125 g/ha: 125 g ai/ha; for pest or weed control at 500 g/ha: 500 g ai/ha
Procedure, shortened: as §1

[8] = system: pigweed (Amaranthus retroflexus); experiment: Test B pre/postemergence; details: Amaranthus retroflexus; for pest or weed control at 125 g/ha: 125 g ai/ha; for pest or weed control at 500 g/ha: 500 g ai/ha
Procedure, shortened: as §1

[9] = system: velvetleaf (Abutilon theophrasti); experiment: Test B pre/postemergence; details: Abutilon theophrasti; for pest or weed control at 125 g/ha: 125 g ai/ha; for pest or weed control at 500 g/ha: 500 g ai/ha
Procedure, shortened: as §1

[10] = system: wheat (Triticum aestivum); experiment: Test B pre/postemergence; details: Triticum aestivum; for plant injury at 125 g/ha: 125 g ai/ha; for plant injury at 500 g/ha: 500 g ai/ha
Procedure, shortened: as §1

[11] = system: blackgrass (Alopecurus myosuroides); experiment: Test B postemergence; details: Alopecurus myosuroides, post-emergence
Procedure, shortened: as §1

wild oat (Avena fatua) = experiment: Test B postemergence; details: Avena fatua, post-emergence
Procedure, shortened: as §1

[12] = system: barnyardgrass (Echinochloa crus-galli); experiment: Test B flooded paddy test; details: Echinochloa crus-galli, Flood, 1000 g ai/ha; scale 0 (no effect) to 100 (complete control); read-out: Plant response rating, Barnyardgrass
Procedure, shortened: (§2)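 Visual injury scoring (0 = no effect, 100 = complete control) versus controls made 13 to 15 days after treatment in the greenhouse. Test species were grown in flooded paddy to the 2-leaf stage: rice, barnyardgrass, umbrella sedge, duck salad.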

[13] = system: duck salad (Heteranthera limosa); experiment: Test B flooded paddy test; details: Heteranthera limosa, Flood, 1000 g ai/ha; scale 0 to 100; read-out: Plant response rating, Ducksalad
Procedure, shortened: as §2

rice (Oryza sativa) = experiment: Test B flooded paddy test; details: Oryza sativa, Flood, 1000 g ai/ha; scale 0 to 100; read-out: Plant response rating, Rice
Procedure, shortened: as §2

[14] = system: umbrella sedge (Cyperus difformis); experiment: Test B flooded paddy test; details: Cyperus difformis, Flood, 1000 g ai/ha; scale 0 to 100; read-out: Plant response rating, Sedge, Umbrella
Procedure, shortened: as §2

[15] = pre-emergence, Preemergence, scale 0 to 100 (0 no effect, 100 complete control), read-out: Plant response rating, Wheat

SMILES: COC(=O)c1nc(C2CC2)nc(NO)c1Br [Compound 35]
- pest or weed control at 125 g/ha ([1]; post-emergence, Postemergence, scale 0 to 100 (0 no effect, 100 complete control), read-out: Surinam Grass plant response rating): 20%
- pest or weed control at 500 g/ha ([1]; post-emergence, Postemergence, scale 0 to 100, read-out: Plant response rating, Surinam Grass): 80%
- pest or weed control at 125 g/ha ([1]; pre-emergence, Preemergence, scale 0 to 100 (0 no effect, 100 complete control), read-out: Plant response rating, Surinam Grass): 10%
- pest or weed control at 500 g/ha ([1]; pre-emergence, Preemergence, scale 0 to 100 (0 no effect, 100 complete control), read-out: Surinam Grass plant response rating): 60%
- pest or weed control at 125 g/ha ([2]; post-emergence, Postemergence, scale 0 to 100 (0 no effect, 100 complete control), read-out: Barnyardgrass plant response rating): 40%
- pest or weed control at 500 g/ha ([2]; post-emergence, Postemergence, scale 0 to 100, read-out: Plant response rating, Barnyardgrass): 90%
- pest or weed control at 125 g/ha ([2]; pre-emergence, Preemergence, scale 0 to 100 (0 no effect, 100 complete control), read-out: Plant response rating, Barnyardgrass): 10%
- pest or weed control at 500 g/ha ([2]; pre-emergence, Preemergence, scale 0 to 100 (0 no effect, 100 complete control), read-out: Barnyardgrass plant response rating): 80%
- pest or weed control at 125 g/ha ([3]; post-emergence, Postemergence, scale 0 to 100 (0 no effect, 100 complete control), read-out: Cocklebur plant response rating): 30%
- pest or weed control at 500 g/ha ([3]; post-emergence, Postemergence, scale 0 to 100, read-out: Plant response rating, Cocklebur): 100%
- pest or weed control at 125 g/ha ([3]; pre-emergence, Preemergence, scale 0 to 100 (0 no effect, 100 complete control), read-out: Plant response rating, Cocklebur): 60%
- pest or weed control at 500 g/ha ([3]; pre-emergence, Preemergence, scale 0 to 100 (0 no effect, 100 complete control), read-out: Cocklebur plant response rating): 90%
- plant injury at 125 g/ha (corn (Zea mays); post-emergence, Postemergence, 125 g ai/ha, scale 0 to 100 (0 no effect, 100 complete control), read-out: Corn plant response rating): 0%
- Corn plant response rating (crop injury, 0 = no effect, 100 = complete kill) at 500 g/ha (corn (Zea mays); post-emergence, Postemergence, 500 g ai/ha, scale 0 to 100): 60%
- Corn plant response rating (crop injury, 0 = no effect, 100 = complete kill) at 125 g/ha (corn (Zea mays); pre-emergence, Preemergence, 125 g ai/ha, scale 0 to 100 (0 no effect, 100 complete control)): 0%
- plant injury at 500 g/ha (corn (Zea mays); pre-emergence, Preemergence, 500 g ai/ha, scale 0 to 100 (0 no effect, 100 complete control), read-out: Corn plant response rating): 50%
- pest or weed control at 125 g/ha ([4]; post-emergence, Postemergence, scale 0 to 100 (0 no effect, 100 complete control), read-out: Crabgrass plant response rating): 20%
- pest or weed control at 500 g/ha ([4]; post-emergence, Postemergence, scale 0 to 100, read-out: Plant response rating, Crabgrass): 50%
- pest or weed control at 125 g/ha ([4]; pre-emergence, Preemergence, scale 0 to 100 (0 no effect, 100 complete control), read-out: Plant response rating, Crabgrass): 30%
- pest or weed control at 500 g/ha ([4]; pre-emergence, Preemergence, scale 0 to 100 (0 no effect, 100 complete control), read-out: Crabgrass plant response rating): 80%
- pest or weed control at 125 g/ha ([5]; post-emergence, Postemergence, scale 0 to 100 (0 no effect, 100 complete control), read-out: Foxtail, Giant plant response rating): 10%
- pest or weed control at 500 g/ha ([5]; post-emergence, Postemergence, scale 0 to 100, read-out: Plant response rating, Foxtail, Giant): 60%
- pest or weed control at 125 g/ha ([5]; pre-emergence, Preemergence, scale 0 to 100 (0 no effect, 100 complete control), read-out: Plant response rating, Foxtail, Giant): 0%
- pest or weed control at 500 g/ha ([5]; pre-emergence, Preemergence, scale 0 to 100 (0 no effect, 100 complete control), read-out: Foxtail, Giant plant response rating): 70%
- pest or weed control at 125 g/ha ([6]; post-emergence, Postemergence, scale 0 to 100 (0 no effect, 100 complete control), read-out: Lambsquarters plant response rating): 90%
- pest or weed control at 500 g/ha ([6]; post-emergence, Postemergence, scale 0 to 100, read-out: Plant response rating, Lambsquarters): 100%
- pest or weed control at 125 g/ha ([6]; pre-emergence, Preemergence, scale 0 to 100 (0 no effect, 100 complete control), read-out: Plant response rating, Lambsquarters): 90%
- pest or weed control at 500 g/ha ([6]; pre-emergence, Preemergence, scale 0 to 100 (0 no effect, 100 complete control), read-out: Lambsquarters plant response rating): 100%
- pest or weed control at 125 g/ha ([7]; post-emergence, Postemergence, scale 0 to 100 (0 no effect, 100 complete control), read-out: Morningglory plant response rating): 70%
- pest or weed control at 500 g/ha ([7]; post-emergence, Postemergence, scale 0 to 100, read-out: Plant response rating, Morningglory): 100%
- pest or weed control at 125 g/ha ([7]; pre-emergence, Preemergence, scale 0 to 100 (0 no effect, 100 complete control), read-out: Plant response rating, Morningglory): 70%
- pest or weed control at 500 g/ha ([7]; pre-emergence, Preemergence, scale 0 to 100 (0 no effect, 100 complete control), read-out: Morningglory plant response rating): 100%
- pest or weed control at 125 g/ha ([8]; post-emergence, Postemergence, scale 0 to 100 (0 no effect, 100 complete control), read-out: Pigweed plant response rating): 70%
- pest or weed control at 500 g/ha ([8]; post-emergence, Postemergence, scale 0 to 100, read-out: Plant response rating, Pigweed): 100%
- pest or weed control at 125 g/ha ([8]; pre-emergence, Preemergence, scale 0 to 100 (0 no effect, 100 complete control), read-out: Plant response rating, Pigweed): 80%
- pest or weed control at 500 g/ha ([8]; pre-emergence, Preemergence, scale 0 to 100 (0 no effect, 100 complete control), read-out: Pigweed plant response rating): 100%
- pest or weed control at 125 g/ha ([9]; post-emergence, Postemergence, scale 0 to 100 (0 no effect, 100 complete control), read-out: Velvetleaf plant response rating): 50%
- pest or weed control at 500 g/ha ([9]; post-emergence, Postemergence, scale 0 to 100, read-out: Plant response rating, Velvetleaf): 90%
- pest or weed control at 125 g/ha ([9]; pre-emergence, Preemergence, scale 0 to 100 (0 no effect, 100 complete control), read-out: Plant response rating, Velvetleaf): 70%
- pest or weed control at 500 g/ha ([9]; pre-emergence, Preemergence, scale 0 to 100 (0 no effect, 100 complete control), read-out: Velvetleaf plant response rating): 90%
- plant injury at 125 g/ha ([10]; post-emergence, Postemergence, scale 0 to 100 (0 no effect, 100 complete control), read-out: Wheat plant response rating): 20%
- plant injury at 500 g/ha ([10]; post-emergence, Postemergence, scale 0 to 100, read-out: Plant response rating, Wheat): 60%
- plant injury at 125 g/ha [10, 15]: 20%
- plant injury at 500 g/ha [10, 15]: 50%
- pest or weed control at 125 g/ha ([11]; 125 g ai/ha, scale 0 to 100 (0 no effect, 100 complete control), read-out: Blackgrass plant response rating): 60%
- pest or weed control at 500 g/ha ([11]; 500 g ai/ha, scale 0 to 100, read-out: Plant response rating, Blackgrass): 70%
- pest or weed control at 125 g/ha (wild oat (Avena fatua); 125 g ai/ha, scale 0 to 100 (0 no effect, 100 complete control), read-out: Oat, Wild plant response rating): 60%
- pest or weed control at 500 g/ha (wild oat (Avena fatua); 500 g ai/ha, scale 0 to 100, read-out: Plant response rating, Oat, Wild): 60%
- pest or weed control at 1000 g/ha [12]: 0%
- pest or weed control at 1000 g/ha [13]: 0%
- plant injury at 1000 g/ha (rice (Oryza sativa)): 0%
- pest or weed control at 1000 g/ha [14]: 0%
